# Laboratory results reported in patent publication US12268702B2, “Antitumor pharmaceutical composition comprising azvudine and chemotherapeutic agent” (HENAN GENUINE BIOTECH CO., LTD., priority 2023, dated 2025).
# Columns and labels:
# [1] = system: LoVo xenograft tumor model; assay: LoVo human colon cancer subcutaneous xenograft tumor model; format: in vivo; settings: 21st day of administration, azvudine 1 mpk, capecitabine 400 mpk, combination 1 + 400 mpk; for Tumor volume (mm^3): BALB/c nude mice, p.o. QD x 3 weeks
# Protocol: Human colon cancer cells LoVo (Cat. No.: ECACC-87060101) were cultured in vitro as a monolayer in F12K medium containing 10% fetal bovine serum, 100 U/mL penicillin and 100 μg/mL streptomycin, in a 37° C. and 5% CO2 incubator. The cells were routinely digested with trypsin-EDTA and passaged twice a week. When the cell saturation reached 80%-90% and the cell number achieved the requirement, the cells were collected, counted and inoculated.
# 0.1 mL)(10×10^6) of LoVo cells were subcutaneously inoculated on the right back of each mouse. The grouping administration was started when the average tumor volume reached about 147 mm^3.
# The tumor volume changes and the tumor weight changes in each group (on the 21st day of administration) after administration of test drugs for treating BALB/c nude mice with Lovo cell subcutaneous xenograft tumor are shown in Table 5 and Table 6 respectively.
# [2] = system: OVCAR-8 human ovarian cancer model; assay: OVCAR-8 human ovarian cancer subcutaneous xenograft tumor model; format: in vivo; settings: azvudine 1 mg/kg, paclitaxel 15 mg/kg, avastin 10 mg/kg, combinations 1 + 15 and 1 + 10 mg/kg
# Protocol: OVCAR-8 cells were cultured in RPMI1640 medium containing 10% fetal bovine serum. OVCAR-8 cells in the exponential growth phase were collected, resuspended in PBS to an appropriate concentration and mixed with Matrigel at a ratio of 1:1. The resulting mixture was used for subcutaneous inoculation of tumor in mice.
# 1×10^7 OVCAR-8 cells were inoculated subcutaneously on the right side of female mice. When the average tumor volume achieved 174.25 mm^3, the mice were randomly divided into groups according to tumor size.
# The experimental protocols for animal experiments in this experiment were reviewed and approved by the CrownBio IACUC committee. During the experiment, the animal experiments were performed in accordance with the requirements of AAALAC. After tumor inoculation was completed, the impact of tumor growth and treatment on normal behavior of animals was routinely monitored, specifically the activity of experimental animals, food intake and water intake, body weight gain or loss (body weight was measured twice a week), eye, hair and other abnormalities. The clinical symptoms observed during the experiment were recorded in the original data. The tumor volume was calculated according to the following formula: tumor volume (mm^3)=½×(a×b^2) (where a represents long diameter and b represents short diameter).
# Relative tumor proliferation rate, T/C %, refers to the percentage value of the relative tumor volume or tumor weight of the treatment group and the control group at a certain time point, which was calculated as follows: • T/C %=TRTV/CRTV×100% (TRTV: the average RTV of the treatment group; CRTV: the average RTV of the vehicle control group; RTV=Vt/V0, where V0 is the tumor volume of the animal when grouped, and Vt is the tumor volume of the animal after treatment); • or T/C %=TTW/CTW×100% (TTW: the average tumor weight of the treatment group at the end of the experiment; CTW: the average tumor weight of the vehicle control group at the end of the experiment).
# Relative tumor inhibition rate, TGI (%), was calculated according to the formula as follows: TGI %=(1−T/C)×100%. (T and C are the relative tumor volumes (RTV) or tumor weights (TW) of the treatment group and the control group at a specific time point).
# To compare tumor volumes of different treatment groups on a given day, first the assumption of homogeneity of variance among all groups was tested using the Bartlett test. When the p-value of Bartlett's test was not less than 0.05, whether all group means were equal was tested using one-way ANOVA. If the p-value of the one-way ANOVA was less than 0.05, pairwise comparisons among all groups were conducted using Tukey's HSD test, or pairwise comparisons between each treatment group and control group were conducted using Dunnett's t-test. When the p-value of Bartlett's test was less than 0.05, whether the medians of all groups were equal was tested using Kruskal Wallis test. If the p-value of the Kruskal Wallis test was less than 0.05, pairwise comparisons among all groups or between each treatment group and control group were conducted using Conover test, and the corresponding p-value correction was performed according to the number of groups in the multiple test.
smiles,measurement,setting,value
"[N-]=[N+]=N[C@]1(CO)O[C@@H](n2ccc(N)nc2=O)[C@@H](F)[C@@H]1O [Azvudine, azvudine]",Tumor volume (mm^3),[1],902 ± 163 mm^3
same,Tumor volume (mm^3),[1]; listed as azvudine,902 mm^3
same,Tumor weight,[1],0.937 ± 0.142 g
same,T/C (%),[1]; based on tumor volume,62.00%
same,TGI (%),[1]; based on tumor volume,43.40%
same,T/C (%),[1]; based on tumor weight,66.37%
same,T/C (%),[2]; 34th day after grouping,81.91%
same,TGI (%),[2]; 34th day after grouping,18.09%
same,Tumor volume (x ± S),[2]; 34th day after grouping,460.67 ± 105.37(6)
same,average tumor volume,[2]; 34th day of administration,460.67 mm^3
